{
  "source": "EPA's ToxValDB 9.5",
  "key": {"Evynnis japonica": {"tested_on": "Evynnis japonica", "details": "acute; duration: 12 hours; mortality"}, "Metacarcinus magister": {"tested_on": "Metacarcinus magister", "details": "chronic/long-term; duration: 200 hours; mortality"}, "Oncorhynchus mykiss": {"tested_on": "Oncorhynchus mykiss", "details": "for NOEC / LOAEL: chronic/long-term; for LOAEL: oral, feed; for LC50: acute, duration: 96 hours"}, "Rattus norvegicus": {"tested_on": "Rattus norvegicus", "details": "for LD50: acute"}, "Bovidae": {"tested_on": "Bovidae", "details": "oral, diet"}, "Canidae": {"tested_on": "Canidae", "details": "for NOEL: capsule"}, "Coturnix coturnix": {"tested_on": "Coturnix coturnix", "details": "chronic; duration: 105 days; oral; diet; mortality"}, "Ovis sp.": {"tested_on": "Ovis sp.", "details": "oral"}, "[1]": {"details": "chronic/long-term; development"}, "Bibionidae": {"tested_on": "Bibionidae", "details": "chronic/long-term, other"}, "Daphnia magna": {"tested_on": "Daphnia magna", "details": "chronic/long-term; duration: 21 days; reproduction"}, "Oryctolagus sp.": {"tested_on": "Oryctolagus sp.", "details": "for NOEL: reproduction; for LEL: subchronic"}, "Tagia sp.": {"tested_on": "Tagia sp.", "details": "chronic/long-term; duration: 56 days"}, "Typhlodromus pyri": {"tested_on": "Typhlodromus pyri", "experiment": "LR50; higher = less toxic", "details": "not reported; mortality"}, "Homo sapiens": {"tested_on": "Homo sapiens", "details": "clinical; duration: 12 weeks; oral; drinking water; M; no effects"}, "Cyprinodon variegatus": {"tested_on": "Cyprinodon variegatus", "details": "acute; duration: 96 hours; mortality"}, "Pimephales promelas": {"tested_on": "Pimephales promelas", "details": "chronic/long-term; duration: 33 days; growth"}, "Danio rerio": {"tested_on": "Danio rerio", "details": "acute; duration: 96 hours; mortality"}, "Equus caballus": {"tested_on": "Equus caballus", "details": "other; oral; feed; clinical signs"}, "Felidae": {"tested_on": "Felidae", "details": "acute; oral; diet; Cat; neurology"}, "Raphanus sp.": {"tested_on": "Raphanus sp.", "details": "acute; duration: 19 days; seedling emergence"}, "Sus scrofa": {"tested_on": "Sus scrofa", "details": "Not specified"}, "Capra sp.": {"tested_on": "Capra sp.", "details": "subchronic; duration: 90 days; oral; feed; growth"}},
  "note": "“And” between values parts separate entries of the source, which are not always exact repeats. Equal entries are not always repeated.",
  "data": [
    {"smiles": "[Al+3].[Al+3].[O-2].[O-2].[O-2].[O-2].[O-2].[Si+4]", "note": "[Aluminum oxide silicate  (Al2O(SiO4))]", "values": [
      {"measurement": "LC50", "setting": "Evynnis japonica", "result": 494, "unit": "µg/mL"},
      {"measurement": "LC50", "setting": "Metacarcinus magister", "result": 32000, "unit": "µg/mL"},
      {"measurement": "NOEC", "setting": "Oncorhynchus mykiss; duration: 30 days, mortality", "result": 100, "unit": "mg/L"},
      {"measurement": "LD50", "setting": "Rattus norvegicus; oral, mortality", "result": "> 5000", "unit": "mg/kg"}
    ]},
    {"smiles": "ClC1=C(Cl)[C@]2(Cl)[C@@H]3[C@H]4C[C@H]([C@@H]5O[C@H]45)[C@@H]3[C@@]1(Cl)C2(Cl)Cl", "note": "[Endrin]", "values": [
      {"measurement": "NOAEL", "setting": "Anas platyrhynchos; subchronic, duration: 12 weeks, oral, feed, M/F, mortality", "result": 0.5, "unit": "mg/kg"},
      {"measurement": "LEL", "setting": "Bovidae; chronic, duration: 112 days, no effects", "result": 5, "unit": "mg/kg-day"},
      {"measurement": "NOAEL", "setting": "Canidae; chronic, duration: 18 months, oral, diet, Dog Other, organ weight", "result": 1, "unit": "mg/kg-day"},
      {"measurement": "LOAEL", "setting": "Coturnix coturnix", "result": 0.5, "unit": "mg/kg-day"},
      {"measurement": "NOAEL", "setting": "Gallus gallus; subchronic, duration: 50 days, oral, diet, mortality", "result": 1, "unit": "mg/kg-day"},
      {"measurement": "LOAEL", "setting": "Oncorhynchus mykiss; duration: 163 days, clinical chemistry", "result": 4.3, "unit": "µg/kg-day"},
      {"measurement": "LEL", "setting": "Ovis sp.; chronic, duration: 112 days, diet, no effects", "result": 5, "unit": "mg/kg-day"}
    ]},
    {"smiles": "CC(=O)O.CCCCCCCCCCCCN=C(N)N", "note": "[Dodecylguanidine acetate]", "values": [
      {"measurement": "NOAEL", "setting": "[1]", "result": 45, "unit": "mg/kg-day"},
      {"measurement": "LD50", "setting": "Anas platyrhynchos; acute, oral, unspecified", "result": 857, "unit": "mg/kg-day"},
      {"measurement": "NOEL", "setting": "Bird; reproductive", "result": 17, "unit": "mg/kg-day"},
      {"measurement": "LC50", "setting": "Bird; short-term, oral, feed", "result": 208, "unit": "mg/kg-day"},
      {"measurement": "LD50", "setting": "Rattus norvegicus", "result": 851, "unit": "mg/kg-day"}
    ]},
    {"smiles": "CC(C)C1(C)N=C(c2nc3ccccc3cc2C(=O)O)NC1=O", "note": "(centres undefined) [Imazaquin]", "values": [
      {"measurement": "NOEC", "setting": "Bibionidae; duration: 28 days", "result": 228, "unit": "mg/kg"},
      {"measurement": "NOAEL", "setting": "Canidae; chronic, duration: 1 years, oral, Dog Other, clinical signs", "result": 25, "unit": "mg/kg-day"},
      {"measurement": "NOEC", "setting": "Colinus virginianus; reproduction developmental", "result": 16.6, "unit": "mg/kg-day"},
      {"measurement": "NOEC", "setting": "Daphnia magna", "result": 100, "unit": "mg/L"},
      {"measurement": "NOEC", "setting": "Oncorhynchus mykiss; duration: 28 days, growth", "result": 51.2, "unit": "mg/L"},
      {"measurement": "NOAEL", "setting": "Oryctolagus sp.; reproduction developmental, mortality", "result": 250, "unit": "mg/kg-day"},
      {"measurement": "NOEC", "setting": "Tagia sp.", "result": 0.0275, "unit": "mg/kg"},
      {"measurement": "LR50", "setting": "Typhlodromus pyri", "result": "> 4", "unit": "g/ha"}
    ]},
    {"smiles": "[O-][Cl+2]([O-])[O-]", "note": "[Chlorate]", "values": [
      {"measurement": "NOEL", "setting": "Homo sapiens", "result": 0.036, "unit": "mg/kg-day"}
    ]},
    {"smiles": "ClC=CCCl", "note": "[1,3-Dichloropropene]", "values": [
      {"measurement": "NOEC", "setting": "Anas platyrhynchos; reproductive", "result": 36, "unit": "mg/kg-day"},
      {"measurement": "LD50", "setting": "Anas platyrhynchos; short-term, oral, feed, mortality", "result": 1080, "unit": "mg/kg-day"},
      {"measurement": "NOEC", "setting": "Bibionidae; duration: 28 days", "result": 0.369, "unit": "mg/L"},
      {"measurement": "LD50", "setting": "Colinus virginianus; acute, oral, mortality", "result": 92, "unit": "mg/kg-day"},
      {"measurement": "LC50", "setting": "Cyprinodon variegatus", "result": 0.87, "unit": "µg/mL"},
      {"measurement": "NOEC", "setting": "Pimephales promelas", "result": 0.0069, "unit": "mg/L"},
      {"measurement": "LD50", "setting": "Rattus norvegicus; oral, mortality", "result": 130, "unit": "mg/kg-day"},
      {"measurement": "NOAEL", "setting": "Rattus norvegicus; chronic, duration: 2 years, oral, diet, histopathology: neoplastic", "result": 2.5, "unit": "mg/kg-day"}
    ]},
    {"smiles": "CC[C@@H](C(=O)[C@@H](C)[C@@H](O)[C@H](C)[C@@H]1O[C@@H]([C@@H](CC)C(=O)[O-])CC[C@@H]1C)[C@H]1O[C@]2(C=C[C@@H](O)[C@]3(CC[C@@](C)([C@H]4CC[C@](O)(CC)[C@H](C)O4)O3)O2)[C@H](C)C[C@@H]1C.[Na+]", "note": "[Salinomycin sodium]", "values": [
      {"measurement": "NOEC", "setting": "Bibionidae", "result": 6.6, "unit": "mg/kg"},
      {"measurement": "LEL", "setting": "Bovidae; subchronic, duration: 11 weeks, morphology", "result": 90, "unit": "mg/kg-day"},
      {"measurement": "NOAEL", "setting": "Canidae; acute, duration: 1 days, oral, gavage, Beagle, clinical signs", "result": 0.5, "unit": "mg/kg-day"},
      {"measurement": "NOAEL", "setting": "Canidae; chronic, duration: 1 years, oral, diet, Dog Other, neurology", "result": 0.5, "unit": "mg/kg-day"},
      {"measurement": "NOAEL", "setting": "Canidae; chronic, duration: 12 months, Dog Other", "result": 0.5, "unit": "mg/kg-day"},
      {"measurement": "NOEL", "setting": "Canidae; chronic, duration: 12 months, oral, M/F, Dog Other, neurology", "result": 0.5, "unit": "mg/kg-day"},
      {"measurement": "NOEL", "setting": "Canidae; repeat dose other, oral, Dog Other, clinical signs", "result": 0.625, "unit": "mg/kg-day"},
      {"measurement": "LC50", "setting": "Danio rerio", "result": 6.98, "unit": "µg/mL"},
      {"measurement": "LEL", "setting": "Equus caballus", "result": "≥ 0.12", "unit": "mg/kg"},
      {"measurement": "LEL", "setting": "Felidae", "result": "≥ 16", "unit": "mg/kg-day"},
      {"measurement": "LEL", "setting": "Gallus gallus; subchronic, duration: 5 weeks, oral, diet, M, body weight", "result": 140, "unit": "mg/kg-day"},
      {"measurement": "LEL", "setting": "Gallus gallus; subchronic, duration: 12 weeks, oral, diet, body weight", "result": 60, "unit": "mg/kg-day"},
      {"measurement": "LEL", "setting": "Gallus gallus; subchronic, duration: 42 days, organ weight", "result": 140, "unit": "mg/kg-day"},
      {"measurement": "LEL", "setting": "Gallus gallus; subchronic, duration: 56 days, growth", "result": 150, "unit": "mg/kg-day"},
      {"measurement": "LC50", "setting": "Oncorhynchus mykiss; mortality", "result": "1.7 µg/mL and 1.14 µg/mL"},
      {"measurement": "NOEL", "setting": "Oryctolagus sp.; reproduction developmental, duration: 24 days, oral, diet, F", "result": 0.5, "unit": "mg/kg-day"},
      {"measurement": "NOEL", "setting": "Oryctolagus sp.; reproduction developmental", "result": 0.5, "unit": "mg/kg-day"},
      {"measurement": "LEL", "setting": "Oryctolagus sp.; duration: 6 weeks, oral, diet, food consumption", "result": "≤ 25", "unit": "mg/kg-day"},
      {"measurement": "LC50", "setting": "Raphanus sp.", "result": 2.6, "unit": "mg/kg"},
      {"measurement": "LOEL", "setting": "Rattus norvegicus; chronic, duration: 2 years, oral, diet, M/F, Wistar, clinical chemistry", "result": 1.5, "unit": "mg/kg-day"},
      {"measurement": "NOAEL", "setting": "Rattus norvegicus; subchronic, duration: 90 days, oral, diet, M/F, Sprague-Dawley, organ weight", "result": 0.6, "unit": "mg/kg-day"},
      {"measurement": "NOAEL", "setting": "Sus scrofa; chronic, duration: 14 weeks, oral, diet, M/F, no effects", "result": "≥ 5", "unit": "mg/kg-day"}
    ]},
    {"smiles": "Cc1cc2c(C(C)C)c(O)c(O)c(C=O)c2c(O)c1-c1c(C)cc2c(C(C)C)c(O)c(O)c(C=O)c2c1O", "note": "[Gossypol]", "values": [
      {"measurement": "LEL", "setting": "Canidae; repeat dose other, oral, diet, Dog Other, mortality", "result": 5, "unit": "mg/kg-day"},
      {"measurement": "LEL", "setting": "Capra sp.", "result": "≥ 15", "unit": "mg/kg-day"},
      {"measurement": "NOAEL", "setting": "Gallus gallus; short-term, duration: 20 days, oral, diet, histopathology: nonneoplastic", "result": 20, "unit": "mg/kg-day"},
      {"measurement": "LOAEL", "setting": "Oncorhynchus mykiss; duration: 10 months, F, development", "result": 140, "unit": "mg/kg"},
      {"measurement": "LEL", "setting": "Oryctolagus sp.; duration: 8 weeks, oral, gavage, M, New Zealand, clinical chemistry", "result": 4, "unit": "mg/kg-day"},
      {"measurement": "LOAEL", "setting": "Ovis sp.; subchronic, duration: 30 days, capsule, gross pathology", "result": 3, "unit": "mg/kg-day"},
      {"measurement": "NOAEL", "setting": "Sus scrofa; repeat dose other, organ weight", "result": 3, "unit": "mg/kg-day"}
    ]},
    {"smiles": "O=C1O[C@H]([C@@H](O)CO)C(O)=C1O", "note": "[L-Ascorbic acid]", "values": [
      {"measurement": "LC50", "setting": "Danio rerio", "result": 32, "unit": "µg/mL"},
      {"measurement": "LC50", "setting": "Oncorhynchus mykiss; mortality", "result": 1020, "unit": "µg/mL"}
    ]}
  ]
}
